# Data: patent US20260158008A1, “POLYMORPHS OF THE MESYLATE SALT OF LINAPRAZAN GLURATE” (Cinclus Pharma Holding AB (Publ), priority 2021, published 2026)
# Like-named read-outs stand apart in the source and are kept apart here.
# How the values were obtained:
# [1] = cited from earlier work
# [2] = up to 24 hours
# Experimental: The solubility of Form A in Fed State Simulated Gastric Fluid (FEDGAS) mid stage, second version of Fasted State Simulated Intestinal Fluid (FaSSIF-V2) and second version of Fed State Simulated Intestinal Fluid (FeSSIF-V2) was studied.
# To 90 mL of Milli Q water were added 139 mg of NaOH, 222 mg of maleic acid and 401 mg of NaCl and the resulting mixture was stirred until fully dissolved. The pH was adjusted to 6.5 with 1 M HCl and 1 M NaOH, and made up to 100 mL with Milli Q water. 179 mg of FaSSIF-V2 (Biorelevant, batch V2FAS-1020-A) was mixed with the prepared 100 ml of buffer, stirred until fully dissolved and equilibrated at RT for 1 hour before use.
# To 90 ml of Milli Q water were added 327 mg of NaOH, 639 mg of maleic acid and 733 mg of NaCl and the resulting mixture was stirred until fully dissolved. The pH was adjusted to 5.8 with 1 M HCl and 1 M NaOH, and made up to 100 mL with Milli Q water. 976 mg of FeSSIF-V2 (Biorelevant, batch V2FES-1020-A) was mixed with the prepared 100 ml of buffer, stirred until fully dissolved and equilibrated at RT for 1 hour before use. […]
# Saturated solutions were prepared in 4 ml vials by adding fixed weights (excess amounts) of Form A to 2 mL of each of the different buffer solutions. […] Concentrations were calculated from a calibration curve based on 7 calibration standards (stock solutions of 100 and 250 μg/mL, and serial dilutions thereof).
# [3] = XRPD check of solid form after TGA or DVS; type: physicochemical
# Experimental: Analyses were performed on a PanAlytical X'Pert Pro diffractometer equipped with a Cu-anode (45 kV, 40 mA), a Kα-1 Johansson monochromator (1.540598 Å) and a Pixcel detector. The 2-theta range was 2-35°, using a step size of 0.013° and a scan speed of 0.10°/s (“6 minutes scan”) or 0.03°/s (“20 minutes scan”). Slow spinning sample holders were used. The samples were smeared out on zero background wafers of Si, producing a flat powdered surface. The measurements were performed using a programmable incident divergency slit.
# Method 1: A few mg of sample was gently charged into open Pt-pans and analysed by weight in a flow of dry nitrogen gas (20 mL/min), to ensure an inert atmosphere, from 25 to 140° C. using a continuous scan speed of 10° C./min, followed by an isothermal step at 140° C. for 60 minutes (ended manually if the drying process was completed before 60 minutes).
# (§1) Method 2: A few mg of the substance was added into an Al pan and exposed to stepwise RH changes during two identical consecutive cycles according to 0-10-20-30-40-50-60-70-80-90-80-70-60-50-40-30-20-10-0% RH using open loop mode. The experiments were performed using a gas flow rate of 200 ml/min and at 25° C. The dm/dt criteria applied were 0.001 weight-%/min during a 5-minutes window, with a maximum allowed time of 360 minutes and a minimum allowed time of 10 minutes for all steps.
# [4] = Dynamic vapour sorption (DVS) analysis, hygroscopicity / water content; type: physicochemical
# Experimental: Analyses were performed on an SMS DVS-1 instrument.
# as §1, with “1:” for “2:”, “steps, except for the first stage which was set to a 12-hours fix time.” for “steps.”
# as §1
# as §1, with “3:” for “2:”, “steps, except for the first stage which was set to a 6-hours fix time.” for “steps.”
# The hygroscopicity of sample 1 of Form A (obtained from a slurry in 2-propanol) was investigated using method 1. […]
# For sample 2 of Form A (obtained from a slurry in acetone), a TGA-dried sample was investigated using method 2. […] In the second cycle, “pure” water absorption and desorption is recorded. […]
# [5] = Plasma concentration after oral administration of linaprazan glurate; type: in vivo, human
# [6] = test system: gastric acid production; conditions: cited from earlier work
# [7] = test system: gastric acid production; conditions: cited from earlier work; remark: listed apart in the source
smiles,measurement,setting,value
Cc1cccc(C)c1CNc1cc(C(=O)NCCOC(=O)CCCC(=O)O)cn2c(C)c(C)nc12 [Form A (free base)],solubility in water,[1]; pH 1,only slightly soluble
same,solubility in water,[1]; pH 6.8,practically insoluble
CS(=O)(=O)O.Cc1cccc(C)c1CNc1cc(C(=O)NCCOC(=O)CCCC(=O)O)cn2c(C)c(C)nc12 [Form A],solubility in FEDGAS relative to FaSSIF-V2,"[2]; FEDGAS mid stage pH 4.5 vs FaSSIF-V2 pH 6.5, 37° C.",about 20 times higher
same,solubility in FEDGAS relative to FeSSIF-V2,"[2]; FEDGAS mid stage pH 4.5 vs FeSSIF-V2 pH 5.8, 37° C.",about 7 times higher
same,solid form after the TGA experiment (XRPD),"[3]; after heating 25 to 140° C., TGA method 1",this form remained
same,solid form after the DVS-analysis (XRPD),"[3]; after two cycles 0-90% RH, 25° C.",this form remained
same,water uptake with relative humidity,"[4]; 0 to 90% RH, 25° C.",increases almost linearly with increasing relative humidity
same,stability at relative humidity,"[4]; relative humidity up to 90%, 25° C.",stable
CS(=O)(=O)O.Cc1cccc(C)c1CNc1cc(C(=O)NCCOC(=O)CCCC(=O)O)cn2c(C)c(C)nc12 [Form B],water content,[4]; at 80% RH,about 3.4%
"Cc1cccc(C)c1CNc1cc(C(=O)NCCOC(=O)CCCC(=O)O)cn2c(C)c(C)nc12 [linaprazan glurate, 5-{2-[({8-[(2,6-dimethylbenzyl)amino]-2,3-dimethylimidazo[1,2-a]pyridine-6-yl}carbonyl)-amino]ethoxy}-5-oxopentanoic acid]",metabolism following absorption into the blood stream,[5]; in vivo,quickly metabolized into linaprazan
same,plasma concentration,[5]; in vivo,only very low and difficult to determine
same,control of gastric acid production compared to linaprazan,"[6]; human, in vivo",total control of the gastric acid production for a longer time
same,half-life in the body compared to linaprazan,"[6]; human, in vivo",longer half-life in the body
same,time for which intragastric acidity is maintained above pH 4,"[6]; single dose, clinical Phase I study",24 hours
Cc1cccc(C)c1CNc1cc(C(=O)NCCO)cn2c(C)c(C)nc12 [linaprazan],concentration at 22 h,"[5]; human, plasma, oral, after 22 hours, estimated from Phase I studies of linaprazan glurate, read-out: minimal plasma concentration (Cmin) of linaprazan required to maintain intra-gastric pH above 4 for 24 hours",≥ 240 nM
same,onset of action,[7]; Phase I and II studies,fast onset of action and full effect at first dose
same,tolerability,[7]; Phase I and II studies,well tolerated
same,duration of acid inhibition,[7]; in vivo,too short duration of acid inhibition
same,elimination,[7]; in vivo,quickly eliminated from the body
